Assay results as given in patent publication US5162571A, “Phenol derivatives, their production and use” (Takeda Chemical Industries, Ltd., priority 1987, dated 1992).

What was measured:
[1] = target: T1, specific [^3 H] U-46619 binding to guinea pig platelet membrane (Cavia porcellus, UniProt A0A286Y4I8); assay: Inhibition of specific [^3 H] U-46619 binding to guinea pig platelet membrane; details: [^3 H] U-46619, 25° C., 30 min; read-out: IC50 (Concentration for 50% inhibition)
T1 construct: Platelet membranes were prepared according to the following procedure; from tissue; host or cells: guinea pig platelet membranes
T1 sequence (A0A286Y4I8 1-347): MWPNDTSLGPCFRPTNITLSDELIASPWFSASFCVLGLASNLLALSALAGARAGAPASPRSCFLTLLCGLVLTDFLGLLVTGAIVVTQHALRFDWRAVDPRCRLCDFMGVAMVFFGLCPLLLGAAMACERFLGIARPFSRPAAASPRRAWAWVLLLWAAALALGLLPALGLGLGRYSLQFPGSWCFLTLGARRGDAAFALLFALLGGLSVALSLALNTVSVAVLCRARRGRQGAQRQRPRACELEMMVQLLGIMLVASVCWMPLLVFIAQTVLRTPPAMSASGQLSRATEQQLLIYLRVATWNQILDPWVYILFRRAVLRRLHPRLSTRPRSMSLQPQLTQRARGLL
Description: Inhibition of specific [^3 H] U-46619 binding to guinea pig platelet membrane
Method: Blood from normal guinea pig was collected into 0.315% citrate solution containing aspirin (final concentration 1 mM) and was centrifuged at 3000 r.p.m. for […]. The PRP (platelet rich plasma) was centrifuged at 4800 r.p.m for 10 min. at 4° C. Platelet membranes were prepared according to the following procedure: In order to remove the residual plasma protein, the platelet pellet was washed once with 30 ml of buffer containing 25 mM Tris-HCl/5 mM MgCl2 (pH 7.4) and recentrifuged to pellet the platelets. The platelets were then resuspended in 20 ml of the same buffer, and the cells were disrupted by sonication. The sonication was performed on ice using a Kontes Sonicator (Vineland, N.J.). The platelets were sonicated for a total of 90 sec. with a 15 sec. burst followed by a 15 sec. intermission. The sonicated mixture was centrifuged at 100,000×g for 1 hour and the membrane fraction was suspended in the same buffer. The protein concentration was adjusted to 1 mg/ml.
The binding assay was performed at 25° C. for 30 min. One ml of the resuspended membrane fraction was incubated with […] of [^3 H] U-46619. The incubation mixture was filtered through a glass fiber membrane (GF/C, whatman) to separate the membrane bound from free [^3 H] U-46619. The membranes were quickly washed twice with 5 ml of cold buffer, mixed with 4 ml of ACS scintillation fluid and counted for [^3 H] U-46619.

[2] = system: lipid peroxides production in rat brain homogenates; assay: Inhibitory action on lipid peroxides production in rat brain homogenates; format: biochemical; details: 10^-5 M
Description: Inhibitory action on lipid peroxides production in rat brain homogenates
Method: The male SD rat brain tissue was used as 5% homogenate in phosphate-buffered solution. After incubation of the homogenate for 1 hour at 37° C., the amount of lipid peroxides produced was determined by the thiobarbituric acid method according to the description of Ohkawa et al. (Analytical Biochemistry, 95: 551, 1979)
Test compounds were used as a solution of dimethylsulfoxide. The inhibitory action on lipid peroxide production was expressed as a % inhibition as compared with the amount of production in the vehicle group.

Cc1c(C)c(Br)c(C)c(C(CCCCCC(=O)O)c2ccc(F)cc2)c1O (centres unmarked) [Compound 12, 7-(5-bromo-2-hydroxy-3,4,6-trimethylphenyl)-7-(4-fluorophenyl)heptanoic acid]
IC50 [1]: 200 nM | Inhibition (%) [2]: 100%
